Data as given in PubChem BioAssay (NCI).
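All cell lines were grown in 96-well plates and treated with compound for 48 hours. GI50: concentration for 50% inhibition of growth. The concentration for full growth arrest is given as TGI.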

Experiments:
Assay in all cases: inhibition of tumour cell growth, NCI panel, 48 h
786-0 renal = test system: 786-0 renal
HT29 colon = test system: HT29 colon
NCI-H460 lung = test system: NCI-H460 lung
UO-31 renal = test system: UO-31 renal
DU-145 prostate = test system: DU-145 prostate
HCT-116 colon = test system: HCT-116 colon
A549 NSCLC = test system: A549 NSCLC
ACHN renal = test system: ACHN renal
BT-549 breast = test system: BT-549 breast
PC-3 prostate = test system: PC-3 prostate
HOP-92 NSCLC = test system: HOP-92 NSCLC
SK-MEL-2 melanoma = test system: SK-MEL-2 melanoma
CCRF-CEM leukemia = test system: CCRF-CEM leukemia
K-562 leukemia = test system: K-562 leukemia
SK-OV-3 ovarian = test system: SK-OV-3 ovarian
RXF 393 renal = test system: RXF 393 renal
A498 renal = test system: A498 renal
MDA-MB-435 = test system: MDA-MB-435
SF-295 CNS = test system: SF-295 CNS

SMILES | TGI (786-0 renal) [µM] | TGI (HT29 colon) [µM] | TGI (NCI-H460 lung) [µM] | TGI (UO-31 renal) [µM] | TGI (DU-145 prostate) [µM] | TGI (HCT-116 colon) [µM] | TGI (A549 NSCLC) [µM] | TGI (ACHN renal) [µM] | TGI (BT-549 breast) [µM] | TGI (PC-3 prostate) [µM] | GI50 (HOP-92 NSCLC) [nM] | TGI (HOP-92 NSCLC) [µM] | TGI (SK-MEL-2 melanoma) [µM] | TGI (CCRF-CEM leukemia) [µM] | TGI (K-562 leukemia) [µM] | TGI (SK-OV-3 ovarian) [µM] | TGI (RXF 393 renal) [µM] | TGI (A498 renal) [µM] | TGI (MDA-MB-435) [µM] | TGI (SF-295 CNS) [µM]
CC[C@]12C=CCN3CCC4(c5cc([C@@]6(C(=O)OC)CC7CN(CCc8c6[nH]c6ccccc86)C[C@@H]6CCCC[C@H]76)c(OC)cc5N(C)C4[C@](O)(C(=O)OC)C1OC(C)=O)[C@@H]32 (some centres not stated) | 12.5 | < 0.01 | 0.0425 | 8.58 | 14.8 | 1.73 | 14.6 | 5.53 | 21.2 | < 0.01 | 67.2 | 16.9 | 7.85 | > 37.1 |  |  |  |  |  | 
CCOC(=O)Cc1nnc2n(-c3ccccc3)c(=O)c3ccccc3n12 | > 100 | > 100 | > 100 | > 100 | > 100 | > 100 | > 100 | > 100 |  | > 100 |  | > 100 | > 100 | > 100 | > 100 | > 100 | > 100 | > 100 | > 100 | > 100
c1cc2nnsc2s1 | > 100 | > 100 | > 100 | > 100 |  |  |  | > 100 |  |  |  | > 100 | > 100 | > 100 | > 100 | > 100 |  | > 100 |  | > 100
CC(=O)OCCOCNC(=S)N/N=C/c1cc([N+](=O)[O-])ccc1O | > 100 | > 100 | > 100 | > 100 |  | > 100 | > 100 | > 100 |  |  |  | > 100 | > 100 | > 100 | > 100 | > 100 | > 100 | > 100 |  | > 100
CCOC(=O)C(NC(C)=O)(Nc1ccc(S(N)(=O)=O)cc1)C(F)(F)F (configuration not stated) | > 100 | > 100 | > 100 | > 100 | > 100 | > 100 | > 100 | > 100 |  | > 100 |  | > 100 | > 100 | > 100 | > 100 | > 100 | > 100 | > 100 | > 100 | > 100
COC1(C)C(=O)N2C1N(C(=O)OC(C)(C)C)CC2(C)C (configuration not stated) | > 100 | > 100 | > 100 | > 100 |  | > 100 | > 100 | > 100 |  |  |  | > 100 | > 100 | > 100 | > 100 | > 100 | > 100 | > 100 |  | > 100
CC(=O)OCC1OC(OC2C(COC(C)=O)OC(Sc3ccccc3C)C(OC(C)=O)C2OC(C)=O)C(OC(C)=O)C(OC(C)=O)C1OC(C)=O (configuration not stated) | > 100 | > 100 | > 100 | > 100 |  | > 100 | > 100 | > 100 |  |  |  | > 100 | > 100 |  | > 100 | > 100 | > 100 | > 100 |  | > 100
O=C(O)c1ccccc1CC1Cc2cc3c(cc2C1)CCC3 | > 100 | > 100 | > 100 | > 100 | > 100 | > 100 | > 100 | > 100 | > 100 |  |  |  | > 100 | > 100 | > 100 | > 100 | > 100 | > 100 | > 100 | > 100
COc1ccc(C2ON(c3ccccc3)CC=C2C)cc1 (configuration not stated) | > 100 | > 100 | > 100 | > 100 |  | > 100 | > 100 | > 100 |  |  |  |  | 78.3 | > 100 | > 100 | > 100 | > 100 |  |  | > 100
CC(NCc1c(O)ccc2ccc(=O)oc12)C(=O)O (configuration not stated) | > 100 | > 100 | > 100 | > 100 | > 100 | > 100 | > 100 | > 100 |  | > 100 |  | > 100 | > 100 | > 100 | > 100 | > 100 | > 100 |  | > 100 | > 100
Cc1c(/C=N/NC(=S)Nc2ccc(Cl)cc2)c(=O)n(-c2ccccc2)n1C | 31.2 | > 100 | > 61 | > 100 | > 100 | > 62.5 | > 95.9 | 31.9 |  | > 100 |  |  | 69 | > 100 | > 100 | 35.8 | 28 | > 58.8 | > 100 | 44.5
CN/C=C(\C(=O)c1ccc(OC)c(OC)c1)c1ccc(OC)cc1 | 23.9 | 38.2 | 63.2 | 48.6 |  | 18.1 | > 100 | 75.1 |  |  |  |  | 31.5 | 23.8 | 27.1 | > 100 | 33.2 | 28.2 |  | > 100
O=C(Cc1ccccc1)NN1C(=O)/C(=C\c2cccc([N+](=O)[O-])c2)SC1=Nc1ccccc1 | > 100 | > 100 | > 100 | > 100 | > 100 | > 100 | > 100 | > 100 |  |  |  | > 100 | > 100 |  | > 100 | > 100 | > 100 | > 100 | > 100 | > 100
N#CC(C#N)=C/C=C/c1c(Cl)cccc1Cl | 3.35 | 3.25 | 4.08 | 3.39 | 3.2 | 2.62 | 7.22 | 3.19 |  | 3.68 |  | 4.8 | 3.47 | > 10 | 8.56 | 5.64 | 2.97 | 6.49 | 4.59 | 4.38
O=c1[nH]c(=O)n(C2CC(O)C(CO)O2)cc1C(F)(C(F)(F)F)C(F)(F)F (configuration not stated) | > 100 | > 100 | > 100 | > 100 |  |  |  | > 100 |  |  |  | > 100 | > 100 | > 100 | > 100 | > 100 | > 100 | > 100 |  | > 100
CC1C2CC(CC2(C)O)C1(C)C (configuration not stated) | > 100 | > 100 | > 100 | > 100 | > 100 | > 100 | > 100 | > 100 | > 100 | > 100 |  | > 100 |  | > 100 | > 100 | > 100 | > 100 | > 100 |  | > 100
COc1cc2oc(-c3ccccc3)cc(=O)c2c(O)c1C | > 100 | > 100 | > 100 | > 100 |  | > 100 | > 100 | > 100 |  |  |  | > 100 | > 100 | > 100 | > 100 | > 100 |  | > 100 |  | > 100
CNC1c2ccccc2C(=O)c2cc3c(cc21)OCCOCCOCCOCCO3 (configuration not stated) | > 100 | > 100 | > 100 | > 100 |  | > 100 | > 100 | > 100 |  | > 100 |  |  |  | 46.1 | > 100 | > 100 |  |  | > 100 | > 100
CN(C)Cc1cc(C(=O)/C=C/c2ccc(Cl)c(Cl)c2)cc(CN(C)C)c1O | 3.09 | 2.79 | 7.9 | 5.39 | 15.9 | 12.1 | 8.47 | 11.6 |  | 5.32 |  | 3.85 |  | 11.7 | 4.74 |  | 11.1 | 11.1 | 13.2 | 12.1
CC(=O)Nc1ccc(-c2nnc(SCC(=O)Nc3cccc(Cl)c3)o2)cc1 | 23.7 | 31 | 51.2 | 76.9 |  | 25.5 | 33.1 | 28.9 |  |  |  |  | 70.4 | > 100 | > 100 | > 100 | 31.4 | 34 |  | 33.6
CCOc1cn(C2OC(CO)C(O)C2O)c(=O)[nH]c1=O (configuration not stated) | > 100 | > 100 | > 100 | > 100 |  | > 100 | > 100 | > 100 |  |  |  | > 100 | > 100 | > 100 | > 100 | > 100 | > 100 | > 100 |  | > 100
C=CCC1(Sc2ccccn2)Sc2ccc3ccccc3c2-c2c(ccc3ccccc23)S1 | > 100 | > 100 | > 100 | > 100 | > 100 | > 100 | > 100 | > 100 |  | > 100 |  | > 100 | > 100 | > 100 | > 100 | > 100 | > 100 | > 100 | > 100 | > 100
CC(=O)c1cc2c(s1)C(=O)c1sccc1C2=O | 0.421 | 0.426 | 0.211 | 0.0908 | 0.0995 | 0.489 | 0.433 |  | 0.0321 | 0.133 |  | 0.746 | 0.193 | 0.0912 | 0.174 | 3.2 | 0.0919 | 2.77 |  | 0.0852
COc1ccc(C(=O)c2c3cc(OC)c(OC)c(OC)c3cc[n+]2C)cc1 | 33.5 | > 100 | > 100 | > 100 |  | > 100 | 34.7 | > 100 |  |  |  |  | 52.2 | 71.2 | > 100 | > 100 | > 100 | > 100 |  | 
COc1cc(CC2c3cc(OC)c(OC)cc3CCN2C)ccc1O (configuration not stated) | > 100 | > 100 | > 100 | > 100 |  | > 100 | > 100 | > 100 |  |  |  |  | > 100 | > 100 | > 100 |  |  | > 100 |  | > 100
CNC(=O)C1(C#N)C(c2ccccc2)C(C#N)(C(=O)NC)C1c1ccccc1 (configuration not stated) | > 100 | > 100 | > 100 | > 100 |  | > 100 | > 100 | > 100 |  | > 100 |  | > 100 | > 100 | > 100 | > 100 | > 100 |  | > 100 | > 100 | > 100
COc1cccc(/C=C/C(=O)c2sc(C(N)=S)nc2C)c1O | > 100 | > 100 | > 100 | > 100 |  | > 92.5 | > 100 | > 100 |  |  |  | > 100 | > 100 | 64.2 | > 100 | > 100 | > 100 | > 100 |  | > 100
Cc1cc(=O)oc2c(CNC(CO)C(=O)O)c(O)ccc12 (configuration not stated) | > 100 | > 100 | > 100 | > 100 | > 100 | > 100 | > 100 | > 100 |  | > 100 |  | > 100 | > 100 | > 100 | > 100 | > 100 | > 100 |  | > 100 | > 100
CC(c1ccc2c(c1)CCC1C2CC2OC23CC=CC(=O)[C@]13C)C1C[C@]2(C)O[C@]2(C)[C@H](O)O1 (some centres not stated) | > 100 | > 100 | > 100 | > 100 |  | > 100 | > 100 | > 100 |  |  |  | > 100 | > 100 | > 100 | > 100 | > 100 | 50.5 |  |  | 
CCOC(=O)C1=C(C)NC2=C(C(=O)N(c3ccccc3)C2c2ccccc2)C1c1ccccc1 (configuration not stated) | 35.8 | 37.2 |  | 39.1 |  | 31.4 | 44.2 | 27 |  |  |  | 25.8 | 33.5 | 58 | > 100 | 31.4 |  |  |  | 
